Legend:
Type in all cases: physicochemical
[1] = Solvent comparison: visual observation of naringenin dissolution, reassessed after three months; design: key: X: Dissolved; ◯: Partially dissolved, with sediments observed; #: Not dissolved; *: reprecipitated
Description: Several solvents and solvent blends were prepared after which a measured amount of naringenin was added and mechanically agitated. Each mixture was then visually observed for dissolution. All samples were stored at room temperature protected from direct light and were reassessed for stability after a period of three months.

[2] = Solubility at 25° C. from transparency during a heating ramp (Crystalline PV), exponential fit
Description: Naringenin was mixed with different solvents and mixtures of solvent and transferred to an 8-mL vial equipped with an overhead stirrer. The sample was placed in a Crystalline PV instrument (Technobis, The Netherlands). A heating step was carried with a heating ramp of +0.1° C./min under mechanical stirring, and the samples were monitored by following transparency via a LED light beam that passes through the vial. Full (100%) transparency is attained when Naringenin is completely dissolved in the solvent. On the other hand, when the measured values of transparency are below 100% the dissolution process is still incomplete. Once the signal has attained 100% transparency, the dissolution process was complete and the respective temperature was taken as the solubilization temperature.
For each solvent or mixture of solvent, the measured solubility as a function of temperature has been fitted to an exponential function. The solubility at 25° C. was obtained by extrapolation or interpolation of this exponential function.
The same method as described in Example 3 was used to determine the solubility of Phloretin at 25° C.

[3] = Stability of naringenin solutions stored three months at room temperature; design: key: X: dissolved; *: reprecipitated
Excerpt: (§1) Naringenin was mixed with different solvents and heated until the product has completely dissolved. Subsequently, the samples were left to cool down to room temperature and stored over a period of three months.

[4] = as above; design: key: X: Dissolved; ◯: Partially dissolved, with sediments observed; #: Not dissolved; *: reprecipitated; details: n-Propyl alcohol
Excerpt: as §1

[5] = (D)-Carvone, naringenin 15% (w/w)
[6] = (L)-Carvone + isopropyl alcohol (50:50), naringenin 10% (w/w)
[7] = (L)-Carvone, naringenin 10% (w/w)
[8] = Carvone + isopropyl alcohol + benzyl alcohol (20:40:40), naringenin 10% (w/w)
[9] = Ethanol + benzyl alcohol (50:50), naringenin 10% (w/w)
[10] = Ethyl lactate + Glycerol 20%, naringenin 10% (w/w)
[11] = Ethyl lactate, naringenin 10% (w/w)
[12] = Isopropyl alcohol + benzyl alcohol (50:50), naringenin 10% (w/w)
[13] = Isopropyl alcohol, naringenin 10% (w/w)
[14] = Lactic acid, naringenin 5% (w/w)
[15] = Mint Spicata (60% Carvone), naringenin 6% (w/w)
[16] = Mint Spicata China (80% Carvone) + isopropyl alcohol (60:40), naringenin 15% (w/w)
[17] = Mint Spicata China (80% Carvone), naringenin 10% (w/w)
[18] = Propanol NAT, naringenin 6% (w/w)
[19] = Propylene glycol, naringenin 10% (w/w)
[20] = (L)-Carvone 50% + Isopropyl alcohol 50%
[21] = n-Propyl alcohol, 4% of Naringenin
[22] = n-Propyl alcohol, 5% of Naringenin
[23] = n-Propyl alcohol, 6% of Naringenin

SMILES: O=C1C[C@@H](c2ccc(O)cc2)Oc2cc(O)cc(O)c21 [Naringenin, naringenin]
- Observation [1, 5]: X
- Observation (after 3 months at RT) [1, 5]: X
- Observation [1, 6]: X
- Observation (after 3 months at RT) [1, 6]: X
- Observation [1, 7]: X
- Observation (after 3 months at RT) [1, 7]: X
- Observation [1, 8]: X
- Observation (after 3 months at RT) [1, 8]: X
- Observation [1, 9]: X
- Observation (after 3 months at RT) [1, 9]: *
- Observation [1, 10]: ◯
- Observation (after 3 months at RT) [1, 10]: ◯
- Observation [1, 11]: #
- Observation (after 3 months at RT) [1, 11]: #
- Observation ([1]; Glycerol, naringenin 5% (w/w)): #
- Observation (after 3 months at RT) ([1]; Glycerol, naringenin 5% (w/w)): #
- Observation [1, 12]: X
- Observation (after 3 months at RT) [1, 12]: *
- Observation [1, 13]: #
- Observation (after 3 months at RT) [1, 13]: #
- Observation [1, 14]: #
- Observation (after 3 months at RT) [1, 14]: #
- Observation [1, 15]: X
- Observation (after 3 months at RT) [1, 15]: X
- Observation [1, 16]: X
- Observation (after 3 months at RT) [1, 16]: X
- Observation [1, 17]: X
- Observation (after 3 months at RT) [1, 17]: X
- Observation [1, 18]: ◯
- Observation (after 3 months at RT) [1, 18]: ◯
- Observation [1, 19]: #
- Observation (after 3 months at RT) [1, 19]: #
- Solubility of Naringenin at 25° C. (%) ([2]; (D)-Carvone 100%): 8.5%
- Solubility of Naringenin at 25° C. (%) ([2]; (L)-Carvone 30% + n-Propyl alcohol 70%): 11.7%
- Solubility of Naringenin at 25° C. (%) ([2]; (L)-Carvone 50% + Ethanol 50%): 18.7%
- Solubility of Naringenin at 25° C. (%) [2, 20]: 16.6%
- Solubility of Naringenin at 25° C. (%) ([2]; (L)-Carvone 50% + Propylene glycol 50%): 13.0%
- Solubility of Naringenin at 25° C. (%) ([2]; (L)-Carvone 50% + n-Propyl alcohol 50%): 14.9%
- Solubility of Naringenin at 25° C. (%) ([2]; (L)-Carvone 70% + n-Propyl alcohol 30%): 15.7%
- Solubility of Naringenin at 25° C. (%) ([2]; (L)-Carvone 90% + n-Propyl alcohol 10%): 13.0%
- Solubility of Naringenin at 25° C. (%) ([2]; (L)-Carvone 100%): 8.5%
- Solubility of Naringenin at 25° C. (%) ([2]; Benzyl alcohol 100%): 3.9%
- Solubility of Naringenin at 25° C. (%) ([2]; Ethyl lactate 100%): 5.3%
- Solubility of Naringenin at 25° C. (%) ([2]; Eucalyptol 100%): 1.2%
- Solubility of Naringenin at 25° C. (%) ([2]; Glycerol 100%): 0.1%
- Solubility of Naringenin at 25° C. (%) ([2]; Isopropyl alcohol 50% + Benzyl alcohol 50%): 6.9%
- Solubility of Naringenin at 25° C. (%) ([2]; Isopropyl alcohol 100%): 5.2%
- Solubility of Naringenin at 25° C. (%) ([2]; Limonene 100%): <0.1%
- Solubility of Naringenin at 25° C. (%) ([2]; Mint Spicata (80% carvone) 50% + Propylene glycol 50%): 12.0%
- Solubility of Naringenin at 25° C. (%) ([2]; Mint Spicata (80% carvone) 60% + Isopropyl alcohol 40%): 15.4%
- Solubility of Naringenin at 25° C. (%) ([2]; Mint Spicata (80% carvone) 100%): 7.5%
- Solubility of Naringenin at 25° C. (%) ([2]; Neobee 100%): 0.1%
- Solubility of Naringenin at 25° C. (%) ([2]; Propylene glycol 100%): 3.6%
- Solubility of Naringenin at 25° C. (%) ([2]; Triethyl citrate 100%): 1.7%
- Solubility of Naringenin at 25° C. (%) ([2]; n-Propyl alcohol 100%): 4.2%
- Solution state (after three months at RT) ([3]; (L)-Carvone, 4% of Naringenin): X
- Solution state (right after heating) ([3]; (L)-Carvone, 4% of Naringenin): X
- Solution state (after three months at RT) ([3]; (L)-Carvone, 5% of Naringenin): X
- Solution state (right after heating) ([3]; (L)-Carvone, 5% of Naringenin): X
- Solution state (after three months at RT) ([3]; (L)-Carvone, 6% of Naringenin): X
- Solution state (right after heating) ([3]; (L)-Carvone, 6% of Naringenin): X
- Solution state (after three months at RT) ([3]; (L)-Carvone, 8% of Naringenin): X
- Solution state (right after heating) ([3]; (L)-Carvone, 8% of Naringenin): X
- Solution state (after three months at RT) ([3]; (L)-Carvone, 10% of Naringenin): X
- Solution state (right after heating) ([3]; (L)-Carvone, 10% of Naringenin): X
- Solution state (after three months at RT) ([3]; (L)-Carvone, 12% of Naringenin): X
- Solution state (right after heating) ([3]; (L)-Carvone, 12% of Naringenin): X
- Solution state (after three months at RT) [3, 21]: X
- Solution state (right after heating) [3, 21]: X
- Solution state (after three months at RT) [3, 22]: X
- Solution state (right after heating) [3, 22]: X
- Solution state (after three months at RT) [3, 23]: X
- Solution state (right after heating) [3, 23]: X
- Solution state (right after heating) ([3]; n-Propyl alcohol, 8% of Naringenin): X
- Solution state (right after heating) ([3]; n-Propyl alcohol, 10% of Naringenin): X
- Solution state (right after heating) ([3]; n-Propyl alcohol, 12% of Naringenin): X
- Solution state (after three months at RT) ([4]; 8% of Naringenin): *
- Solution state (after three months at RT) ([4]; 10% of Naringenin): *
- Solution state (after three months at RT) ([4]; 12% of Naringenin): *

SMILES: O=C(CCc1ccc(O)cc1)c1c(O)cc(O)cc1O [Phloretin, phloretin]
- Solubility of Phloretin at 25° C. (%) ([2]; (L)-Carvone 50% + Ethanol 50%): 21.9%
- Solubility of Phloretin at 25° C. (%) [2, 20]: 22.8%
- Solubility of Phloretin at 25° C. (%) ([2]; (L)-Carvone 100%): 7.7%
- Solubility of Phloretin at 25° C. (%) ([2]; Ethanol 100%): 15.9%
- Solubility of Phloretin at 25° C. (%) ([2]; Isopropyl alcohol 100%): 12.7%
- Solubility of Phloretin at 25° C. (%) ([2]; Propylene glycol 100%): 8.9%

Source: patent US20260165350A1, “FLAVONOID COMPOSITIONS AND USES THEREOF” (FIRMENICH SA, priority 2022, published 2026)
